Test results from publication PMC10336670 (Saudi Pharmaceutical Journal : SPJ, 2023).

Target: urease enzyme (Canavalia ensiformis, UniProt P07374)
Assay type: biochemical

Sequence of urease enzyme (P07374 whole entry, looked up): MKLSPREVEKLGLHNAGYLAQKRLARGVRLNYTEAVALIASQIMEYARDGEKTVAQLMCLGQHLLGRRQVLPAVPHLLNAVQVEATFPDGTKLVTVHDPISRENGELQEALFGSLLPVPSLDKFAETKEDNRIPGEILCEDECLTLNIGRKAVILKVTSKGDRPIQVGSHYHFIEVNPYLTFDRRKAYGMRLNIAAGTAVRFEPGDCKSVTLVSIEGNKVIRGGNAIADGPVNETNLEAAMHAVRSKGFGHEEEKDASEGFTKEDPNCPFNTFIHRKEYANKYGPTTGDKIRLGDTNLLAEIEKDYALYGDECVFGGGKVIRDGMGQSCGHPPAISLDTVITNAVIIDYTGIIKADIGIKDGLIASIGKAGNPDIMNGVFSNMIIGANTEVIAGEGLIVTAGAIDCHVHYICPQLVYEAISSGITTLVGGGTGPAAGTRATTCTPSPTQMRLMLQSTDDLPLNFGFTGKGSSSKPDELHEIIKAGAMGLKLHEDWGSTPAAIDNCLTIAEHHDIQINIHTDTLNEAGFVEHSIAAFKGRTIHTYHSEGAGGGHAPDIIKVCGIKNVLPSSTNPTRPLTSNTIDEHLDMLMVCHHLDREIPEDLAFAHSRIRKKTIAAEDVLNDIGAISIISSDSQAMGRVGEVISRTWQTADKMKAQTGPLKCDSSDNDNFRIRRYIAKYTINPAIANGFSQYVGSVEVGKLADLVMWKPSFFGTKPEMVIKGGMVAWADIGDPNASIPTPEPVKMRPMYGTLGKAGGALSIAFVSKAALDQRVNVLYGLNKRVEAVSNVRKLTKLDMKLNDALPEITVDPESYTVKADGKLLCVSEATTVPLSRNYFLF

How did the “potency as urease inhibitor compared to the standard drug thiourea” value turn out when Fc1ccc2ncc(/C=N\Nc3nc(-c4ccc(-c5ccccc5)cc4)co3)n2c1 [4c, (Z)-4-([1,1'-biphenyl]-4-yl)-2-(2-((6-fluoroimidazo[1,2-a]pyridin-3-yl)methylene)hydrazineyl)oxazole] was run?
Its value is “three-fold least potent”.

Which “potency as urease inhibitor compared to the standard drug thiourea” value does the source give for Cc1ccc(-c2ccc(-c3coc(N/N=C\c4cnc5ccc(F)cn45)n3)cc2)cc1 [4f, (Z)-2-(2-((6-fluoroimidazo[1,2-a]pyridin-3-yl)methylene)hydrazineyl)-4-(4'-methyl-[1,1'-biphenyl]-4-yl)oxazole] here?
Its value is “three-fold least potent”.

Cc1ccccc1-c1coc(N/N=C\c2cnc3ccc(F)cn23)n1 [4p, (Z)-2-(2-((6-fluoroimidazo[1,2-a]pyridin-3-yl)methylene)hydrazineyl)-4-(o-tolyl)oxazole] was tested. Which “potency as urease inhibitor compared to the standard drug thiourea” value did it give?
The value was “three-fold least potency”.

How did the “potency as urease inhibitor compared to the standard drug thiourea” value turn out when CN(C)c1ccc(-c2coc(N/N=C\c3cnc4ccc(F)cn34)n2)cc1 [4 l, (Z)-4-(2-(2-((6-fluoroimidazo[1,2-a]pyridin-3-yl)methylene)hydrazineyl)oxazol-4-yl)-N,N-dimethylaniline] was run?
The value was “three-fold least potency”.
